According to article PMC9181188 (International Journal of Molecular Sciences, 2022):
≈ marks a conversion by molar mass, not a printed value. Like-named read-outs stand apart in the source and are kept apart here.

How the values were obtained:
E. coli ATCC 25922 = test: MIC, twofold microdilution, standard strain; assay type: cell-based, Escherichia coli; details: Escherichia coli, ATCC25922; 18 h of treatment; read-out: MIC E. coli ATCC 25922
[1] = tested on: S. epidermidis KR 4047 825/19; test: MIC, clinical S. epidermidis strain; assay type: cell-based; details: Staphylococcus epidermidis, KR4047825/19, quinolone-resistant, 18 h of treatment
P. aeruginosa ATCC 27853 = test: MIC, twofold microdilution, standard strain; assay type: cell-based; details: Pseudomonas aeruginosa, read-out: MIC P. aeruginosa ATCC 27853
[2] = tested on: S. epidermidis KR 4358/2 840/19; test: MIC, clinical S. epidermidis strain; assay type: cell-based; details: Staphylococcus epidermidis, read-out: MIC KR 4358/2 840/19
[3] = tested on: S. epidermidis T 5501 851/19; test: MIC, clinical S. epidermidis strain; assay type: cell-based; details: Staphylococcus epidermidis, T5501851/19, read-out: MIC T 5501 851/19, quinolone-susceptible, 18 h of treatment
S. aureus NCTC 4163 = test: MIC, twofold microdilution, standard strain; assay type: cell-based; details: Staphylococcus aureus, NCTC4163; 18 h of treatment; read-out: MIC S. aureus NCTC 4163
M. tuberculosis H37Rv = test: MABA (microplate Alamar blue assay) MIC; assay type: cell-based; details: Mycobacterium tuberculosis, 336 h, read-out: MIC M. tuberculosis H37Rv
[4] = tested on: standard staphylococci (S. aureus, S. epidermidis); test: MIC, standard Gram-positive strains as a group; assay type: cell-based; details: Staphylococcus aureus; range over standard Gram-positive strains; read-out: MIC against standard staphylococci
[5] = tested on: S. epidermidis KR 4313 834/19; test: MIC, clinical S. epidermidis strain; assay type: cell-based; details: Staphylococcus epidermidis, KR4313834/19, quinolone-susceptible, 18 h of treatment
[6] = tested on: S. epidermidis KR 4243 829/19; test: MIC, clinical S. epidermidis strain; assay type: cell-based; details: Staphylococcus epidermidis, KR4243829/19, quinolone-susceptible, 18 h of treatment
[7] = tested on: S. epidermidis T 5399 848/19; test: MIC, clinical S. epidermidis strain; assay type: cell-based; details: Staphylococcus epidermidis, T5399848/19, quinolone-susceptible, 18 h of treatment
[8] = tested on: SW480, SW620, and PC3 cancer cell lines; test: MTT assay, cancer cell lines as a group; assay type: cell-based, human; details: Homo sapiens, 72 h, all three cancer cell lines (SW480, SW620, PC3), read-out: IC50 against all tested cancer cell lines
[9] = tested on: M. tuberculosis Spec. 192 (Sensitive to Tuberculostatics); test: MABA (microplate Alamar blue assay) MIC; assay type: cell-based; details: Mycobacterium tuberculosis, 336 h, read-out: MIC M. tuberculosis Spec. 192 (Sensitive to Tuberculostatics)
S. aureus ATCC 6538 = test: MIC, twofold microdilution, standard strain; assay type: cell-based; details: Staphylococcus aureus, ATCC6538; 18 h of treatment; read-out: MIC S. aureus ATCC 6538
S. aureus ATCC 25923 = test: MIC, twofold microdilution, standard strain; assay type: cell-based; details: Staphylococcus aureus, ATCC25923; 18 h of treatment; read-out: MIC S. aureus ATCC 25923
[10] = tested on: S. epidermidis ATCC 35984; test: MIC, twofold microdilution, standard strain; assay type: cell-based; details: Staphylococcus epidermidis, ATCC35984; 18 h of treatment; read-out: MIC S. epidermidis ATCC 35984
HaCaT cells = test: MTT assay, HaCaT normal cells; assay type: cell-based; details: human immortal keratinocyte cell line, 72 h, mean ± SD
SW480 cells = test: MTT assay, SW480; assay type: cell-based, human; details: for IC50: human primary colon cancer, 72 h, MTT, mean ± SD; for SI SW480: SI = IC50 for normal cell line (HaCaT)/IC50 cancer cell line
S. aureus ATCC 29213 = test: MIC, twofold microdilution, standard strain; assay type: cell-based; details: Staphylococcus aureus, ATCC29213; 18 h of treatment; read-out: MIC S. aureus ATCC 29213
PC3 cells = test: MTT assay, PC3; assay type: cell-based, human; details: for SI PC3: SI = IC50 for normal cell line (HaCaT)/IC50 cancer cell line
[11] = tested on: S. epidermidis ATCC 12228; test: MIC, twofold microdilution, standard strain; assay type: cell-based; details: Staphylococcus epidermidis, read-out: MIC S. epidermidis ATCC 12228
[12] = tested on: S. epidermidis T 5253 845/19; test: MIC, clinical S. epidermidis strain; assay type: cell-based; details: Staphylococcus epidermidis, T5253845/19, quinolone-resistant, 18 h of treatment
SW620 cells = test: MTT assay, SW620; assay type: cell-based, human; details: for IC50: human metastatic colon cancer, 72 h, MTT, mean ± SD; for SI SW620: SI = IC50 for normal cell line (HaCaT)/IC50 cancer cell line
[13] = target: T1, S. aureus topoisomerase IV (Staphylococcus aureus, UniProt P0C1S7+P0C1U9); test: S. aureus topoisomerase IV decatenation assay; assay type: biochemical
T1 construct: purchased Inspiralis
Method: The assay was performed using S. aureus topoisomerase IV […] kit (Inspiralis). Kinetoplast DNA (kDNA) was the substrate for topoisomerase IV.

S. aureus DNA gyrase = S. aureus DNA gyrase (Staphylococcus aureus, UniProt P0A0K8+P20831); test: biochemical
[14] = KR4358/2840/19, clinical S. epidermidis, quinolone-susceptible, 18 h of treatment

Row | Compound | MIC (E. coli ATCC 25922) [µg/mL] | MIC [1] [µg/mL] | MIC (P. aeruginosa ATCC 27853; ATCC27853, 18 h of treatment) [µg/mL] | MIC [3] [µg/mL] | MIC (S. aureus NCTC 4163) [µg/mL] | MIC (M. tuberculosis H37Rv) [µg/mL] | MIC [4] [µg/mL] | MIC [5] [µg/mL] | MIC [6] [µg/mL] | MIC [7] [µg/mL] | MIC [9] [µg/mL] | MIC (S. aureus ATCC 6538) [µg/mL] | MIC (S. aureus ATCC 25923) [µg/mL] | MIC [10] [µg/mL] | IC50 (HaCaT cells) [µM] | IC50 (SW480 cells; Homo sapiens, SW480, 72 h) [µM] | SI SW480 (SW480 cells) | MIC (S. aureus ATCC 29213) [µg/mL] | MIC [12] [µg/mL] | IC50 (SW620 cells; Homo sapiens, SW-620, 72 h) [µM] | also measured
1 | CCCCCCCC/C=C\CCCCCCCC(=O)N1CCCC2CN(c3c(F)cc4c(=O)c(C(=O)O)cn(C5CC5)c4c3OC)CC21 (centres unmarked) [Compound 4m, 1-Cyclopropyl-6-fluoro-8-methoxy-7-{1-(Z)-octadec-9-enoyl-octahydro-pyrrolo[3,4-b]pyridin-6-yl}-4-oxo-1,4-dihydro-quinoline-3-carboxylic acid] | 512 (≈ 769 µM) | > 512 | 128 (≈ 192 µM) | > 512 | 128 (≈ 192 µM) | > 512 | > 32 | > 512 | > 512 | > 512 | > 512 | 128 (≈ 192 µM) | 256 (≈ 384 µM) | 256 (≈ 384 µM) | 92.3 ± 6.1 | 4.6 ± 1.4 | 20.1 | 512 (≈ 769 µM) | > 512 | 3.4 ± 0.7 | MIC ([2]; KR4358/2840/19, 18 h): > 512 µg/mL; IC50 [8]: < 5 µM; SI PC3 (PC3 cells): 71.0; MIC ([11]; ATCC12228, 18 h): > 512 µg/mL; SI SW620 (SW620 cells): 27.1
2 | CC(C)=CCCC(C)=CC(=O)N1CCN(c2cc3c(cc2F)c(=O)c(C(=O)O)cn3C2CC2)CC1 [Compound 3] |  |  |  |  |  |  |  |  |  |  |  |  |  |  |  |  |  |  |  |  | IC50 [13]: > 133 µM; IC50 (S. aureus DNA gyrase): 107 µM
3 | N.N.[Cl][Pt][Cl] [Cisplatin, reference compound] |  |  |  |  |  |  |  |  |  |  |  |  |  |  |  |  |  |  |  |  | IC50 (SW480 cells): 10.4 ± 0.9 µM; IC50 (SW620 cells): 6.7 ± 1.1 µM
4 | CC=CC=CC(=O)N1CCN(c2cc3c(cc2F)c(=O)c(C(=O)O)cn3C2CC2)CC1 [Compound 2] |  |  |  |  |  |  |  |  |  |  |  |  |  |  |  |  |  |  |  |  | IC50 [13]: 75.2 µM; IC50 (S. aureus DNA gyrase): 79.9 µM
5 | CCCCCCCCCCCCCCCCCC(=O)N1CCCC2CN(c3c(F)cc4c(=O)c(C(=O)O)cn(C5CC5)c4c3OC)CC21 (centres unmarked) [Compound 16m, 1-Cyclopropyl-6-fluoro-8-methoxy-7-(1-octadecanoyl-octahydro-pyrrolo[3,4-b]pyridin-6-yl)-4-oxo-1,4-dihydro-quinoline-3-carboxylic acid] | 128 (≈ 192 µM) | 256 (≈ 383 µM) |  | 512 (≈ 767 µM) | 64 (≈ 95.8 µM) | > 512 | > 32 | 128 (≈ 192 µM) | 64 (≈ 95.8 µM) | 512 (≈ 767 µM) | > 512 | 64 (≈ 95.8 µM) | 64 (≈ 95.8 µM) | 64 (≈ 95.8 µM) | 81.5 ± 4.2 | < 5 | 30.2 | 64 (≈ 95.8 µM) | 512 (≈ 767 µM) | 6.5 ± 1.2 | MIC (P. aeruginosa ATCC 27853; ATCC27853, 18 h): > 512 µg/mL; MIC [2, 14]: 512 µg/mL (≈ 767 µM); IC50 (SW480 cells): 2.7 ± 0.7 µM; SI PC3 (PC3 cells): 34.0; MIC ([11]; ATCC12228, 18 h of treatment): 64 µg/mL (≈ 95.8 µM); SI SW620 (SW620 cells): 12.5
6 | COc1c(N2C[C@@H]3CCCN[C@@H]3C2)c(F)cc2c(=O)c(C(=O)O)cn(C3CC3)c12 [MXF, moxifloxacin, reference compound] | < 0.03 | 2 (≈ 4.98 µM) | > 512 | 0.1 (≈ 0.249 µM) | 0.06 (≈ 0.149 µM) |  |  | 0.1 (≈ 0.249 µM) | 0.1 (≈ 0.249 µM) | 0.1 (≈ 0.249 µM) |  | 0.06 (≈ 0.149 µM) | < 0.03 | 0.06 (≈ 0.149 µM) | 121 ± 6.8 | 58.4 ± 3.1 |  | 0.06 (≈ 0.149 µM) | 4 (≈ 9.96 µM) | 54.5 ± 3.8 | MIC [2, 14]: 0.1 µg/mL (≈ 0.249 µM); MIC (M. tuberculosis H37Rv; 2 weeks of treatment): 0.25 µg/mL (≈ 0.623 µM); MIC ([9]; 2 weeks of treatment): 0.125 µg/mL (≈ 0.311 µM); IC50 (PC3 cells; Homo sapiens, PC-3, 72 h, human metastatic prostate cancer, 72 h, MTT, mean ± SD): 46.4 ± 3.2 µM; MIC ([11]; ATCC12228, 18 h of treatment): 0.06 µg/mL (≈ 0.149 µM)
